Laboratory results reported in ChEMBL document CHEMBL3217712, “Improved biodistribution, pharmacokinetics and photodynamic efficacy using a new photostable sulfonamide bacteriochlorin” (Medchemcomm, 2012).

Assays:
[1] = n-Octanol-water partition coefficient, log P of the compound; format: physicochemical
S91 = test: Photodynamic efficacy against mouse Cloudman S91 cells allografted in DBA mouse assessed as time of tumor growth delay at 2 mg/kg, iv followed by irradiated with 70 mW cm'-2 diode laser light for 25 mins; format: functional

logP [1] | SMILES | Time (S91)
-1.7 | O=S(=O)(O)c1ccc(Cl)c(-c2c3nc(c(-c4cc(S(=O)(=O)O)ccc4Cl)c4ccc([nH]4)c(-c4cc(S(=O)(=O)O)ccc4Cl)c4nc(c(-c5cc(S(=O)(=O)O)ccc5Cl)c5ccc2[nH]5)CC4)CC3)c1 | 27 days
 | O=S(=O)(O)c1ccc(Cl)c(-c2c3nc(c(-c4cc(S(=O)(=O)O)ccc4Cl)c4ccc([nH]4)c(-c4cc(S(=O)(=O)O)ccc4Cl)c4nc(c(-c5cc(S(=O)(=O)O)ccc5Cl)c5ccc2[nH]5)CC4)C=C3)c1 | 29 days
